Experimental data reported in patent US9416142B2, “Griseofulvin derivatives” (PIERRE FABRE MEDICAMENT, priority 2012, dated 2016).

Key:
Format in all cases: cell-based
[1] = tested on: HCC1937 (primary ductal breast carcinoma cell line); assay: Cytotoxic activity, cell proliferation (ATPLite) on HCC1937 line; details: Homo sapiens, 48 hours after treatment
Protocol: (§1) Culture of Lines and Measurement of Cell Viability:
(§2) The lines NIE115 (ATCC, CRL2263), MDA-MB-231 (ATCC, HTB26) and HSC-1 (Health Science Research Resources Bank, JCRB1015) were cultured in DMEM medium (Dulbecco's modified Eagle medium) supplemented with 2 mM of L-Glutamine (Sigma, G7513) and 10% foetal calf serum (Hyclone, SH30109.03) or 20% for the HSC-1 cells. The HCC-1937 (ATCC, CRL2336) and A549 (ATCC, CCL185) lines were cultured in RPMI medium (Roswell Park Memorial Institute medium) supplemented with 10% foetal calf serum and 2 mM of L-Glutamine. Finally, the SCC114 line (DSMZ, ACC662) was cultured in MEM medium (Minimum Essential Medium Eagle) supplemented with 10% foetal calf serum and 2 mM of L-Glutamine. Initially, in 96-well plates (Perkin Elmer, 6005668), the cells were seeded in their respective culture media with 750 cells per well for NIE115; 1000 cells per well for SCC114 and A549; 2000 cells per well for HCC-1937 and HSC-1; 2500 cells per well for MDA-MB-231. Cascade dilution of each compound was performed in dimethylsulfoxide (DMSO) (Sigma, D8418) using 10 mM stock solutions in 100% DMSO. Each of the dilutions was added to the cells 24 hours after seeding. Under these conditions the final solvent concentration was 0.1% DMSO. Reading of cell proliferation was conducted 72 hours after addition of products with the ATPLite kit (Perkin Elmer, 6016947) and following the manufacturer's directions except in the case of the HCC-1937 line for which this reading was carried out 48 hours after treatment. Analysis of proliferation results was performed by comparing with conditions in which solely the vehicle was added to the cells. The dose-response curves obtained were analysed using Prism 4.03 software (GraphPad Software Inc.) to determine the concentration of each compound allowing 50% inhibition of cell proliferation (IC50). As examples, the cytotoxic properties of some compounds of the invention evaluated on the lines A549 (lung cancer cell line), MDA-MB-231 (mammary adenocarcinoma cell line), NIE115 (mouse brain neuroblastoma cell line), HCC-1937 1 (primary ductal breast carcinoma cell line), HSC-1 (cutaneous squamous carcinoma cell line) and SCC114 (oral squamous carcinoma cell line) are reported in Table 1, as compared with griseofulvin used as control product. The concentration values are expressed in micromolar units (μM).
The activity of the compounds of the invention on the […] line was compared with that of known cytotoxics (Epotilone B and Vinflunine).

[2] = tested on: N1E-115 (mouse brain neuroblastoma cell line); assay: Cytotoxic activity, cell proliferation (ATPLite) on N1E-115 line; details: 50% inhibition of cell proliferation, 72 hours after addition
Protocol: as §1
as §2, with “Analysis of proliferation results was performed by comparing with conditions in which solely the vehicle was added to the cells. The dose-response curves obtained were analysed using Prism 4.03 software (GraphPad Software Inc.) to determine the concentration of each compound allowing 50% inhibition of cell proliferation (IC50).” left out, “The concentration values are expressed in micromolar units (μM).” left out

[3] = tested on: MDA-MB-231 (mammary adenocarcinoma cell line); assay: Cytotoxic activity, cell proliferation (ATPLite) on MDA-MB-231 line; details: Homo sapiens, 50% inhibition of cell proliferation, 72 hours after addition
Protocol: as §1
as §2, with “Analysis of proliferation results was performed by comparing with conditions in which solely the vehicle was added to the cells. The dose-response curves obtained were analysed using Prism 4.03 software (GraphPad Software Inc.) to determine the concentration of each compound allowing 50% inhibition of cell proliferation (IC50).” left out, “The concentration values are expressed in micromolar units (μM).” left out

[4] = tested on: SCC114 (oral squamous carcinoma cell line); assay: Cytotoxic activity, cell proliferation (ATPLite) on SCC114 line; details: 50% inhibition of cell proliferation, 72 hours after addition
Protocol: as §1, §2

[5] = tested on: A549 (lung cancer cell line); assay: Cytotoxic activity, cell proliferation (ATPLite) on A549 line; details: Homo sapiens, 50% inhibition of cell proliferation, 72 hours after addition
Protocol: as §1
as §2, with “Analysis of proliferation results was performed by comparing with conditions in which solely the vehicle was added to the cells. The dose-response curves obtained were analysed using Prism 4.03 software (GraphPad Software Inc.) to determine the concentration of each compound allowing 50% inhibition of cell proliferation (IC50).” left out, “The concentration values are expressed in micromolar units (μM).” left out

[6] = tested on: HSC-1 (cutaneous squamous carcinoma cell line); assay: Cytotoxic activity, cell proliferation (ATPLite) on HSC-1 line; details: 50% inhibition of cell proliferation, 72 hours after addition
Protocol: as §1
The lines NIE115 (ATCC, CRL2263), MDA-MB-231 (ATCC, HTB26) and HSC-1 (Health Science Research Resources Bank, JCRB1015) were cultured in DMEM medium (Dulbecco's modified Eagle medium) supplemented with 2 mM of L-Glutamine (Sigma, G7513) and 10% foetal calf serum (Hyclone, SH30109.03) or 20% for the HSC-1 cells. The HCC-1937 (ATCC, CRL2336) and A549 (ATCC, CCL185) lines were cultured in RPMI medium (Roswell Park Memorial Institute medium) supplemented with 10% foetal calf serum and 2 mM of L-Glutamine. […] Reading of cell proliferation was conducted 72 hours after addition of products with the ATPLite kit (Perkin Elmer, 6016947) and following the manufacturer's directions except in the case of the HCC-1937 line for which this reading was carried out 48 hours after treatment. […] As examples, the cytotoxic properties of some compounds of the invention evaluated on the lines A549 (lung cancer cell line), MDA-MB-231 (mammary adenocarcinoma cell line), NIE115 (mouse brain neuroblastoma cell line), HCC-1937 1 (primary ductal breast carcinoma cell line), HSC-1 (cutaneous squamous carcinoma cell line) and SCC114 (oral squamous carcinoma cell line) are reported in Table 1, as compared with griseofulvin used as control product. […]

[7] = Table 2, comparison with known cytotoxics and 2′-SR7 compounds
[8] = Table 1, 50% inhibition of cell proliferation

## CC[C@]12C=CCN3CC[C@@]4(c5cc([C@@]6(C(=O)OC)C[C@@H]7C[C@@H](C(C)(F)F)CN(Cc8c6[nH]c6ccccc86)C7)c(OC)cc5N(C)[C@H]4[C@@](O)(C(=O)OC)[C@@H]1OC(C)=O)[C@@H]32 [Vinflunine, reference compound]
[1]; [7]
  IC50: > 10 µM

## C/C(=C\c1csc(C)n1)[C@@H]1C[C@@H]2O[C@]2(C)CCC[C@H](C)[C@H](O)[C@@H](C)C(=O)C(C)(C)[C@@H](O)CC(=O)O1 [Epotilone B, reference compound]
[1]; [7]
  IC50: > 10 µM

## COc1cc(OC)c2c(c1Cl)O[C@]1(C2=O)C(S(=O)(=O)Cc2ccccc2)=CC(=O)C[C@H]1C [Compound 145, (1′R,6′R)-2′-(benzylsulfonyl)-7-chloro-4,6-dimethoxy-6′-methyl-3H-spiro[benzofuran-2,1′-cyclohex[2]ene]-3,4′-dione]
[2]
  IC50: 3 µM
[3]
  IC50: 2 µM
[4]
  IC50: 0.385 µM
[1]; [8]
  IC50: 1.4 µM
[5]
  IC50: 1.5 µM

## COc1cc(OC)c2c(c1Cl)O[C@@]1(C=C(S(=O)(=O)Cc3ccccc3)C(=O)C[C@H]1C)C2=O [Compound 96, (1′S,6′R)-3′-(benzylsulfonyl)-7-chloro-4,6-dimethoxy-6′-methyl-3H-spiro[benzofuran-2,1′-cyclohex[2]ene]-3,4′-dione]
[1]; [8]
  IC50: 0.92 µM

## COc1cc(OC)c2c(c1Cl)O[C@]1(C2=O)C(S(=O)(=O)c2ccccc2)=CC(=O)C[C@H]1C [Compound 147, (1′R,6′R)-7-chloro-4,6-dimethoxy-6′-methyl-2′-(phenylsulfonyl)-3H-spiro[benzofuran-2,1′-cyclohex[2]ene]-3,4′-dione]
[1]; [8]
  IC50: 1.6 µM

## COc1cc(OC)c2c(c1Cl)O[C@@]1(C=C(S(=O)(=O)c3ccccc3)C(=O)C[C@H]1C)C2=O [Compound 98, (1′S,6′R)-7-chloro-4,6-dimethoxy-6′-methyl-3′-(phenylsulfonyl)-3H-spiro[benzofuran-2,1′-cyclohex[2]ene]-3,4′-dione]
[4]
  IC50: 0.41 µM
[1]; [8]
  IC50: 0.7 µM

## COC1=CC(=O)C[C@@H](C)[C@]12Oc1c(Cl)c(OC)cc(OC)c1C2=O [Griseofulvin]
[2]
  IC50: > 10 µM
[3]
  IC50: > 10 µM
[4]
  IC50: 6.4 µM
[1]; [8]
  IC50: > 10 µM
[6]
  IC50: > 10 µM
[5]
  IC50: > 10 µM

## COc1cc(OC)c2c(c1Cl)O[C@@]1(C=C([S+]([O-])Cc3ccccc3)C(=O)C[C@H]1C)C2=O (stereo partly drawn) [Compound 97, (1′S,6′R)-3′-(benzylsulfinyl)-7-chloro-4,6-dimethoxy-6′-methyl-3H-spiro[benzofuran-2,1′-cyclohex[2]ene]-3,4′-dione]
[4]
  IC50: 0.021 µM

## COc1cc(OC)c2c(c1Cl)O[C@]1(C2=O)C(SCCN(C)C)=CC(=O)C[C@H]1C (racemic) [B, reference compound]
[1]; [7]
  IC50: > 10 µM

## COc1cc(OC)c2c(c1Cl)O[C@@]1(C=C([S+]([O-])c3ccccc3)C(=O)C[C@H]1C)C2=O (some centres unmarked) [Compound 95]
[2]
  IC50: 1 µM
[3]
  IC50: 0.54 µM
[4]
  IC50: 0.25 µM
[1]; [8]
  IC50: 0.43 µM
[5]
  IC50: 0.25 µM

## COc1cc(OC)c2c(c1Cl)O[C@]1(C2=O)C(S(=O)(=O)CCN(C)C)=CC(=O)C[C@H]1C [Compound 146, (1′R,6′R)-7-chloro-2′-(2-(dimethylamino)ethylsulfonyl)-4,6-dimethoxy-6′-methyl-3H-spiro[benzofuran-2,1′-cyclohex[2]ene]-3,4′-dione]
[1]; [8]
  IC50: 5.9 µM

## COc1cc(OC)c2c(c1Cl)OC1(C2=O)C(SCc2ccccc2)=CC(=O)C[C@H]1C (some centres unmarked) [A, reference compound]
[1]; [7]
  IC50: > 10 µM
